The term IC50 denotes the concentration that gives 50% inhibition.

IC50 data for one compound are collected here from patent publication US7342017B2, “1,2,5-Thiadiazol-3-yl-piperazine therapeutic agents useful for treating pain, depression and anxiety” (Euro-Celtique S.A., priority 2002, dated 2008).

Assay [1] has as its target T1, Human VR1 Receptor (Homo sapiens, UniProt Q8NER1). Put plainly: Inhibition of capsaicin-induced activation of VR1. The class given is cell-based. The settings on record: mean ± spread, (n) = number of experiments, read-out: Inhibition of capsaicin-induced activation IC50 (nM) Mean IC50 ± SEC (n). The source says: (§1) Binding of the Thiadiazolylpiperazine Compounds to the Human VR1 Receptor
(§2) Methods for assaying compounds capable of inhibiting VR1 are well known to those skilled in the art, for example, those methods disclosed in U.S. Pat. No. 6,239,267 to Duckworth et al.; U.S. Pat. No. 6,406,908 to McIntyre et al.; or U.S. Pat. No. 6,335,180 to Julius et al.

The target in assay [2] is T1, Human VR1 Receptor. In words: Inhibition of pH-induced activation of VR1. The class given is cell-based. The following applies: mean ± spread, (n) = number of experiments, read-out: Inhibition of pH-induced activation IC50 (nM) Mean IC50 ± SEC (n).
From the text: as §1, §2

T1 sequence (Q8NER1 whole entry): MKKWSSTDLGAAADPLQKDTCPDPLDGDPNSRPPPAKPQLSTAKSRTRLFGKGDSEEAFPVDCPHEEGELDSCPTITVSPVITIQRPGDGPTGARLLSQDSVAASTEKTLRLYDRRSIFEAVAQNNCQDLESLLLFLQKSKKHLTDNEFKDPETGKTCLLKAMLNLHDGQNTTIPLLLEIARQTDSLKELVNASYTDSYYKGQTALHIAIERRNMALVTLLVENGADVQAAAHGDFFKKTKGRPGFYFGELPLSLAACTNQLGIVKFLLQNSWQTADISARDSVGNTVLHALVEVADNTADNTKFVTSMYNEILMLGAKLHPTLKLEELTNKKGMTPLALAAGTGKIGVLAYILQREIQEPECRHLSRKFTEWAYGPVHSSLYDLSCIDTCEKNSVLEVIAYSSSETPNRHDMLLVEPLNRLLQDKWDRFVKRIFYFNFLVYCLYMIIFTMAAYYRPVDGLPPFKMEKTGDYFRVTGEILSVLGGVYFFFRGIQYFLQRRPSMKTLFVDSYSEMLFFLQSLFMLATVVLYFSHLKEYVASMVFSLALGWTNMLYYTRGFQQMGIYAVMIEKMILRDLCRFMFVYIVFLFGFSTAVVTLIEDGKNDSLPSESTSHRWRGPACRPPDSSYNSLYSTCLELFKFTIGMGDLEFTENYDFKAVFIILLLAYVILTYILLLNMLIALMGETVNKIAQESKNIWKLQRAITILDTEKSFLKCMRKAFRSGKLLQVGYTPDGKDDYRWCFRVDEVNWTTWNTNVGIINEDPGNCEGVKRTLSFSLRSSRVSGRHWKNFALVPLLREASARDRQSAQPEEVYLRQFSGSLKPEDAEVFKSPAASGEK

For the compound `CC(C)c1ccc(NC(=O)N2CCN(c3nsnc3Cl)CC2)cc1`, the IC50 at Human VR1 Receptor [1] amounted to 374 ± 233 nM; at Human VR1 Receptor [2], 668 ± 265 nM.
